Assay results taken from patent US6514989B1, “Aromatic and heteroaromatic substituted 1,2,4-triazolo pyridine derivatives” (Hoffmann-La Roche Inc., priority 2001, dated 2003).

What was measured:
[1] = target: T1, human adenosine A2a receptor (Homo sapiens, UniProt P29274); test: Human adenosine A2a receptor radioligand binding assay ([125I]-AB-MECA, CHO cell membranes); conditions: for Selectivity A1/A2a: ratio obtained by dividing KiHA1 by KiHA2A; for Ki: recombinant human A2a receptor expressed in CHO cells, Ki from IC50 by Cheng-Prussoff equation, read-out: hA2a Ki
T1 construct: expressed in transfected cells; host or cells: CHO cells, semliki forest virus expression system; membrane preparation
Method: Human Adenosine A2a Receptor
The gene encoding human adenosine A2a receptor was recombinantly introduced and expressed in chinese hamster ovary (CHO) cells using the semliki forest virus expression system. Cells were harvested, washed twice by centrifugation, homogenized and again washed by centrifugation. The final washed membrane pellet was suspended in a Tris (50 mM) buffer containing 120 mM NaCl, 5 mM KCl, 2 mM CaCl2 and 10 mM MgCl2 (pH 7.4) (buffer A). The [^125I]-AB-MECA ([N(6)-(4-amino-3-iodobenzyl)-5′-N-methylcarbamoyl-adenosine]; 0.05 nM) binding assay was carried out in 96-well a plates in the presence of 20 μg of membrane protein and 0.1 U adenosine deaminase in a final volume of […] of buffer A. Non-specific binding was defined using xanthine amine congener (XAC; 2 μM). Compounds were tested at 10 concentrations from 10 μM-0.3 nM. All assays were conducted in duplicate and repeated at least two times. Assay plates were incubated for 1 hour at room temperature before filtration through Whatman Unifilter GF/C 96-well filter plates (preincubated with 0.3% polyethyleneimine). Filters were washed 3 times with 0.3 ml of cold (4° C.) Tris (50 mM)—NaC […]
[…] 1 (120 mM) buffer (pH 7.4). Microscint 40 scintillation fluid (50 μl) was added to each well and the wells sealed. After gentle shaking for 20 min, plates were counted on a Packard Topcount scintillation counter. IC50 values were calculated using a non-linear curve fitting program and Ki values calculated using the Cheng-Prussoff equation.
(§1) In accordance with the invention, it has been shown that compounds of formula I have a high affinity toward the A2A receptor. In Table I below specific values of prepared compounds are described, Values of KiHA2A and KiHA1 are shown in Table I for compounds of formula 1. A low Ki value is indicative of a particular compound's high affinity toward a particular receptor and conversely a higher Ki value is indicative of a lower affinity for that compound toward a particular receptor. […] Generally speaking, compounds that have a higher HA1/HA2A ratio are able to give a substantially complete blockade of the HA2A receptor without substantially affecting the A1 receptor.

[2] = target: T2, human adenosine A1 receptor (Homo sapiens, UniProt P30542); test: Human adenosine A1 receptor radioligand binding assay ([3H]-DPCPX, SPA, CHO cell membranes); conditions: recombinant human A1 receptor expressed in CHO cells; [3H]-DPCPX 0.6 nM; Ki from IC50 by Cheng-Prussoff equation; read-out: hA1 Ki
T2 construct: expressed in transfected cells; host or cells: CHO cells, semliki forest virus expression system; membrane preparation
T2 sequence (P30542 1-326): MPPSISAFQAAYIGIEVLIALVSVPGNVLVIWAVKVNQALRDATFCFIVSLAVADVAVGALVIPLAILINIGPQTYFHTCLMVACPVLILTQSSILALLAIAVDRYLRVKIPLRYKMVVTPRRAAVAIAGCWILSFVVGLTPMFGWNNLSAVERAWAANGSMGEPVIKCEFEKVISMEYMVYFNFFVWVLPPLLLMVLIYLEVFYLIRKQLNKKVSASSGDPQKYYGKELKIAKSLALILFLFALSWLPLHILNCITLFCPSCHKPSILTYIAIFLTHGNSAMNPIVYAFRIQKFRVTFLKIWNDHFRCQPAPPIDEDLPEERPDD
Method: Human Adenosine A^1 Receptor
The gene encoding human adenosinie A1 receptor was recombinantly introduced and expressed in chinese hamster ovary (CHO) cells using the semliki forest virus expression system. Cells were harvested, washed twice by centrifugation, homogenized and again washed by centrifugation. The final washed membrane pellet was suspended in a Tris (50 mM) buffer containing 120 mM NaCl, 5 mM KCl, 2 mM CaCl2 and 10 mM MgCl2 (pH 7.4) (buffer A). The [^3H]-DPCPX (([propyl-3H]8-cyclopentyl-1,3-dipropyxanthine); 0.6 nM) binding assay was carried out in 96-well plates in the presence of 2.5 μg of membrane protein, 0.5 mg of Ysi-poly-1-lysine SPA beads and 0.1 U adenosine deaminase in a final volume of 200 μl of buffer A. Non-specific binding was defined using xanthine amine congener (XAC; 2 μM). Compounds were tested at 10 concentrations from 10 μM-0.3 nM. All assays were conducted in duplicate and repeated at least two times. Assay plates were incubated for 1 hour at room temperature before centrifugation and then bound ligand determined using a Packard Topcount scintillation counter. IC50 values were calculated using a non-linear curve fitting program and Ki values calculated using the Cheng-Prussoff equation.
as §1

T1 sequence (P29274 whole entry): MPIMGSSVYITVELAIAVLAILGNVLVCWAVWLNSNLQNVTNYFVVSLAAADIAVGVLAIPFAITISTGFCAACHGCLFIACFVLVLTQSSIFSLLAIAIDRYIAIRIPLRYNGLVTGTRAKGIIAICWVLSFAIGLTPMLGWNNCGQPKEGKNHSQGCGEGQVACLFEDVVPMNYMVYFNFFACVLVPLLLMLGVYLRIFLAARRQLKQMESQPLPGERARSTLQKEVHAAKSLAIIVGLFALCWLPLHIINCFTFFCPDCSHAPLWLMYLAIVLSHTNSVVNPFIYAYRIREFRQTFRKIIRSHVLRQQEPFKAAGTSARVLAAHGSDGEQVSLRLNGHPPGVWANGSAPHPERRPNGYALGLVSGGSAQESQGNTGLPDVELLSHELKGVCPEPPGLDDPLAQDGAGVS

COc1ccc(-c2cccc(F)c2)n2nc(NC(=O)c3ccc(C)s3)nc12 [Example 35, 5-Methyl-thiophene-2-carboxylic acid [5-(3-fluoro-phenyl)-8-methoxy-[1,2,4]triazolo[1,5-a]pyridin-2-yl]-amide]
Selectivity A1/A2a [1]: 10.6 | Ki [1]: 128 nM | Ki [2]: 1360 nM

COc1ccc(-c2ccccc2)n2nc(NC(=O)c3ccc(C)s3)nc12 [Example 23, 5-Methyl-thiophene-2-carboxylic acid(8-methoxy-5-phenyl-[1,2,4]triazolo[1,5-a]pyridin-2-yl)-amide]
Selectivity A1/A2a [1]: 43.4 | Ki [1]: 65.1 nM | Ki [2]: 2830 nM

COc1ccc(-c2ccsc2)n2nc(NC(=O)c3ccc(C)s3)nc12 [Example 29, 5-Methyl-thiophene-2-carboxylic acid (8-methoxy-5-thiophen-3-yl-[1,2,4]triazolo[1,5-a]pyridin-2-yl)-amide]
Selectivity A1/A2a [1]: 24.2 | Ki [1]: 71.1 nM | Ki [2]: 1720 nM

COc1ccc(-c2ccccc2F)n2nc(NC(=O)c3ccc(C)s3)nc12 [Example 24, 5-Methyl-thiophene-2-carboxylic acid [5-(2-fluoro-phenyl)-8-methoxy-[1,2,4]triazolo[1,5-a]pyridin-2-yl]-amide]
Selectivity A1/A2a [1]: 19.5 | Ki [1]: 134 nM | Ki [2]: 2610 nM

CCOc1cccc(-c2ccc(OC)c3nc(NC(=O)c4ccc(F)cc4)nn23)c1 [Example 34, N-[5-(3-Ethoxy-phenyl)-8-methoxy-[1,2,4]triazolo[1,5-a]pyridin-2-yl]-4-fluoro-benzamide]
Selectivity A1/A2a [1]: 11.2 | Ki [1]: 133 nM | Ki [2]: 1490 nM

COc1ccc(-c2ccccc2)n2nc(NC(=O)c3ccc(Br)cc3)nc12 [Example 9, 4-Bromo-N-(8-methoxy-5-phenyl-[1,2,4]triazolo[1,5-a]pyridin-2-yl)-benzamide]
Selectivity A1/A2a [1]: 22.4 | Ki [1]: 102 nM | Ki [2]: 2290 nM

COc1ccc(-c2ccccc2)n2nc(NC(=O)c3cccc(F)c3)nc12 [Example 3, 3-Fluoro-N-(8-methoxy-5-phenyl-[1,2,4]triazolo[1,5-a]pyridin-2-yl)-benzamide]
Selectivity A1/A2a [1]: 11.6 | Ki [1]: 176 nM | Ki [2]: 2030 nM

COc1ccc(-c2ccc(Cl)s2)n2nc(NC(=O)c3ccc(C)s3)nc12 [Example 31, 5-Methyl-thiophene-2-carboxylic acid [5-(5-chloro-thiophen-2-yl)-8-methoxy-[1,2,4]triazolo[1,5-a]pyridin-2-yl]-amide]
Selectivity A1/A2a [1]: 39.6 | Ki [1]: 29.5 nM | Ki [2]: 1170 nM

COc1ccc(-c2cccs2)n2nc(NC(=O)c3cccc(CCl)c3)nc12 [Example 20, 3-Chloromethyl-N-(8-methoxy-5-thiophen-2-yl-[1,2,4]triazolo[1,5-a]pyridin-2-yl)-benzamide]
Selectivity A1/A2a [1]: 15.9 | Ki [1]: 208 nM | Ki [2]: 3300 nM

COc1ccc(C(=O)Nc2nc3c(OC)ccc(-c4ccccc4)n3n2)cc1 [Example 7, 4-Methoxy-N-(8-methoxy-5-phenyl-[1,2,4]triazolo[1,5-a]pyridin-2-yl)-benzamide]
Selectivity A1/A2a [1]: 20.8 | Ki [1]: 227 nM | Ki [2]: 4710 nM

COc1ccc(-c2ccccc2)n2nc(NC(=O)c3ccccc3Cl)nc12 [Example 5, 2-Chloro-N-(8-methoxy-5-phenyl-[1,2,4]triazolo[1,5-a]pyridin-2-yl)-benzamide]
Selectivity A1/A2a [1]: 7.3 | Ki [1]: 258 nM | Ki [2]: 1870 nM

COc1ccc(-c2cccs2)n2nc(NC(=O)c3ccccc3Cl)nc12 [Example 13, 2-Chloro-N-(8-methoxy-5-thiophen-2-yl-[1,2,4]triazolo[1,5-a]pyridin-2-yl)-benzamide]
Selectivity A1/A2a [1]: 9.8 | Ki [1]: 230 nM | Ki [2]: 2250 nM

COc1cccc(-c2ccc(OC)c3nc(NC(=O)c4ccc(C)s4)nn23)c1 [Example 27, 5-Methyl-thiophene-2-carboxylic acid [8-methoxy-5-(3-methoxy-phenyl)-[1,2,4]triazolo[1,5-a]pyridin-2-yl]-amide]
Selectivity A1/A2a [1]: 16.5 | Ki [1]: 107 nM | Ki [2]: 1760 nM

COc1ccc(-c2ccccc2)n2nc(NC(=O)c3cccc(Cl)c3)nc12 [Example 6, 3-Chloro-N-(8-methoxy-5-phenyl-[1,2,4]triazolo[1,5-a]pyridin-2-yl)-benzamide]
Selectivity A1/A2a [1]: 15.8 | Ki [1]: 181 nM | Ki [2]: 2870 nM

COc1ccc(-c2ccsc2)n2nc(NC(=O)c3ccc(F)cc3)nc12 [Example 33, 4-Fluoro-N-(8-methoxy-5-thiophen-3-yl-[1,2,4]triazolo[1,5-a]pyridin-2-yl)-benzamide]
Selectivity A1/A2a [1]: 12.3 | Ki [1]: 191 nM | Ki [2]: 2340 nM

COc1ccc(-c2ccccc2)n2nc(NC(=O)c3ccc(F)cc3)nc12 [Example 4, 4-Fluoro-N-(8-methoxy-5-phenyl-[1,2,4]triazolo[1,5-a]pyridin-2-yl)-benzamide]
Selectivity A1/A2a [1]: 19.6 | Ki [1]: 114 nM | Ki [2]: 2240 nM

COc1ccc(-c2cccs2)n2nc(NC(=O)c3cccc(Cl)c3)nc12 [Example 14, 3-Chloro-N-(8-methoxy-5-thiophen-2-yl-[1,2,4]triazolo[1,5-a]pyridin-2-yl)-benzamide]
Selectivity A1/A2a [1]: 17.4 | Ki [1]: 142 nM | Ki [2]: 2480 nM

COc1ccc(-c2cccs2)n2nc(NC(=O)c3ccc(Br)cc3)nc12 [Example 2, 4-Bromo-N-(8-methoxy-5-thiophen-2-yl-[1,2,4]triazolo[1,5-a]pyridin-2-yl)-benzamide]
Selectivity A1/A2a [1]: 37.6 | Ki [1]: 63.6 nM | Ki [2]: 2390 nM

COc1ccc(-c2ccc(Cl)cc2)n2nc(NC(=O)c3ccc(C)s3)nc12 [Example 26, 5-Methyl-thiophene-2-carboxylic acid [5-(4-chloro-phenyl)-8-methoxy-[1,2,4]triazolo[1,5-a]pyridin-2-yl]-amide]
Selectivity A1/A2a [1]: 11.1 | Ki [1]: 256 nM | Ki [2]: 2860 nM

COc1cccc(C(=O)Nc2nc3c(OC)ccc(-c4ccccc4)n3n2)c1 [Example 11, 3-Methoxy-N-(8-methoxy-5-phenyl-[1,2,4]triazolo[1,5-a]pyridin-2-yl)-benzamide]
Selectivity A1/A2a [1]: 23.4 | Ki [1]: 159 nM | Ki [2]: 3710 nM

COc1ccc(C(=O)Nc2nc3c(OC)ccc(-c4cccs4)n3n2)cc1 [Example 16, 4-Methoxy-N-(8-methoxy-5-thiophen-2-yl-[1,2,4]triazolo[1,5-a]pyridin-2-yl)-benzamide]
Selectivity A1/A2a [1]: 14.2 | Ki [1]: 238 nM | Ki [2]: 3380 nM

COc1cccc(C(=O)Nc2nc3c(OC)ccc(-c4cccs4)n3n2)c1 [Example 19, 3-Methoxy-N-(8-methoxy-5-thiophen-2-yl-[1,2,4]triazolo[1,5-a]pyridin-2-yl)-benzamide]
Selectivity A1/A2a [1]: 24.6 | Ki [1]: 201 nM | Ki [2]: 4940 nM
